System: CRY1, DEPDC1, and CPLX2 expression in KEAP1-mutant NSCLC cells (H460, H2122)
Assay: Gene expression changes (RNA sequencing, qPCR) in KEAP1-mutant NSCLC cells
Assay type: cell-based, human
Details: 12 h; for gene expression changes (CRY1, DEPDC1, CPLX2): KEAP1-mutant NSCLC cells
Experimental: FIG. 13A-FIG. 13E illustrate characterization of NR0B1 ligands in Keap1-mutant NSCLC cells. […] Top: Heat map depicting changes in gene expression between H460 cells expressing shNRF2, shNR0B1 or a control (shGFP) and those treated with vehicle (DMSO), BPK-29 or BPK-9 (30 μM, 12 h). Expression for each condition was first normalized to appropriate controls (shGFP or DMSO) and then normalized by row. Bottom: Overlap between gene sets regulated in BPK-29-treated vs shNR0B1 H460 cells. Gene set enrichment analysis (GSEA) was applied to all genes that were differentially expressed between shNR0B1-H460 cells and shGFP-H460 cells or between H460 cells treated with BPK-29 or DMSO. Genes were ranked based on their FDR. The FDR q-value was computed by GSEA on the C2.all collection and a cut off of FDR<0.05 was required for a gene set to be considered enriched. […] H460 (left) or H2009 (right) cells were treated with vehicle, BPK-29, or BPK-9 (25 μM, 12 h). Gene expression changes for CRY1, DEPDC1, and CPLX2 were determined by qPCR and data represents mean values+SD (n=4-10). […] Cells were treated with the vehicle, BPK-29, or BPK-9 (30 μM, 12 h). Gene expression changes for Cry1, DEPDC1, and CPLX2 were determined by qPCR and data represents mean values+SD (n=4-6). […] H460 cells were treated with vehicle or BPK-29 or BPK-9 at the indicated concentrations for 9 h. Protein expression was analyzed by immunoblotting. […] Top: H460 cells were treated with cycloheximide (100 μg/mL) for the indicated time points and NR0B1 protein content assessed by immunoblotting. […] NR0B1 protein content was determined following cycloheximide treatment and data were fit into a one-phase exponential decay model. […]
RNA was isolated by RNeasy Kit (Qiagen) and digested with DNase (Qiagen) from n=3 samples per condition (cells expressing shGFP, shNRF2_1, shNR0B1_1 or shSNW1_1 or treated with DMSO, 30 μM BPK-29 or 30 μM BPK-9). RNA integrity (RIN) numbers were determined using the Agilent TapeStation prior to library preparation. mRNA-seq libraries were prepared using the TruSeq RNA library preparation kit (version 2) according to the manufacturer's instructions (Illumina). Libraries were then quantified, pooled, and sequenced by single-end 50 base pairs using the Illumina HiSeq 2500 platform at the Salk Next-Generation Sequencing Core. […] Libraries were sequenced at an average depth of 15 million reads per sample.
The spliced read aligner STAR (Dobin et al., 2013) was used to align sequencing reads to the human hg19 genome. Gene-level read counts were obtained based on UCSC hg19 gene annotation. DESeq2 (Love et al., 2014) was used to calculate differential gene expression based on uniquely aligned reads, and p-values were adjusted for multiple hypothesis testing with the Benjamini-Hochberg method.

Structure (SMILES)	gene expression changes (CRY1, DEPDC1, CPLX2) (30 μM)	expression of representative genes (CRY1, DEPDC1, CPLX2) by qPCR (KEAP1-mutant H460 cells, 25 μM)	expression of representative genes (Cry1, DEPDC1, CPLX2) by qPCR (KEAP1-mutant H2122 cells, 30 μM)
O=C(c1ccc(N2CCOCC2)cc1)N1CCC(CN(C(=O)CCl)c2cncnc2)CC1 [BPK-9, 2-chloro-N-((1-(4-morpholinobenzoyl)piperidin-4-yl)methyl)-N-(pyrimidin-5-yl)acetamide]	not observed		
O=C(c1ccc(N2CCOCC2)cc1)N1CCCC(N(Cc2ccccc2)C(=O)CCl)CC1 (stereo not shown) [BPK-29, N-benzyl-2-chloro-N-(1-(4-morpholinobenzoyl)azepan-4-yl)acetamide]	reductions in CRY1, DEPDC1, and CPLX2	alters the expression	alters the expression
